# In a melting point compilation (Tetko et al.; mined from patent text by program, amines drawn as free bases though some values may be those of a salt):
row,melting point,SMILES
1,173 to 175 °C,CC(C)(C)OC(=O)C(N)CCNC(=O)c1ccc2c(c1)C(=O)c1ccccc1C2=O (centres undefined)
2,102 to 104 °C,CC[C@H](C)[C@H](NC(=O)c1ccc(C)cc1)NC(=S)Nc1cccnc1
3,187 °C,Cc1noc(NS(=O)(=O)c2ccc(Nc3ccc([N+](=O)[O-])cc3[N+](=O)[O-])cc2)c1C
4,> 250 °C,Brc1cccc2c1[nH]c1c2ccc2cc[nH]c21
5,77 to 79 °C,COc1ccc(S(=O)(=O)C(CC(=O)NO)Cc2ccccc2)cc1OC (centres undefined)
6,95.3 °C,Fc1cc(F)cc(Oc2ccc(OCc3ccc(Cl)cc3)c(Cl)c2)c1
7,196 to 197 °C,O=[N+]([O-])c1ccc(-c2cc[nH]n2)cc1
8,128 to 130 °C,Cc1oc(-c2ccccc2)nc1COc1ccc(COc2cncc(CO)c2)cc1
9,161 to 162 °C,CCCOc1ccccc1-c1nc2c(C(=O)NCC)cccc2c(=O)[nH]1
10,73 to 75 °C,CC(C)(C)c1cc(NC(=O)Nc2ccc(Oc3cccc(NC(=O)OCc4ccccc4)c3)cc2)no1
11,88 to 89 °C,CCCCc1nc(Cl)c(C=O)n1Cc1ccc([N+](=O)[O-])cc1
12,218 to 220 °C,COc1ccc(-c2c(-c3ccc(S(C)(=O)=O)cc3)[nH]c3ccccc23)cc1
13,222 to 224 °C,COc1ccc(C2(C)C(=O)Nc3cc(OC)cc(Cl)c3C2=O)cc1 (centres undefined)
14,150 °C,NCCNCCCNCCN1C(=O)c2cccc3cc4ccccc4c(c23)C1=O
15,162 to 165 °C,COc1ccc(-c2nc(C)c(C(C)=O)[nH]2)cc1
16,123 to 124 °C,CS(=O)c1ccc(Nc2ccn(-c3ccccc3)n2)cc1 (centres undefined)
17,94 to 96 °C,Cc1ccccc1C=CC(=O)C=Cc1ccccc1C

# More lines, now with the values behind:
row,SMILES,melting point
1,COc1nc(N)nc(Cl)c1C1=NCCN1,212 °C
2,COc1ccc(-c2nc(C)c(C(N)=O)s2)cc1OC,218 to 220 °C
3,Oc1ccc(C2(c3ccc(O)c(F)c3)c3ccccc3-c3ccccc32)cc1F,219 to 221 °C
4,CC(=O)Nc1ncc(C)cc1Br,65 to 66 °C
5,O=C(O)C(=O)c1ccc(OCc2ccc3ccccc3c2)cc1,145 to 146 °C
6,CCCCNC(=O)NCC1CCN(c2ncnc3cc(OC)c(OC)cc23)CC1,141 to 143 °C
7,COC(=O)CN1CC(OC)=CC1=O,104 to 106 °C
8,O=C(O)c1csc(-c2ncccc2O)n1,> 300 °C
9,COc1ccc(C(=O)Nc2c(Cl)cncc2Cl)c2c3ccccc3n(Cc3ccccc3)c12,215 to 217 °C
10,CCOC(=O)Oc1cc(OC)cc(OC)c1C(=O)C=Cc1ccc(OC)cc1,107 °C
11,C[C@H]1CCCN(C(=O)Cc2ccc(Cl)c(Cl)c2)[C@H]1C=O (relative stereo),97 to 98 °C
12,CC(C)(CN)c1ccc2nc(-c3ccncc3)[nH]c2c1,199 to 202 °C
13,Fc1ccc(CCN2CCC(N3CCc4ccc(Br)cc43)CC2)cc1,99 to 101 °C
14,O=C(c1cc(=O)c2cc(O)ccc2[nH]1)N1CCC(Cc2ccccc2)CC1,127 °C
15,O=C(N[C@H]1CCN(CCc2ccc(F)cc2)C1)C(c1cccs1)c1cccs1,96 to 98 °C
16,O=C(O)c1ccc(-c2ccc3cc(O)c(C45CC6CC(CC(C6)C4)C5)cc3c2)cc1,295 to 300 °C
17,CCCC(Cl)(Cl)C(NC(=O)c1ccc(Cl)cc1)NC(=NC#N)Nc1cccnc1 (centres undefined),192 to 193 °C
18,O=C1c2cccc3cc4ccccc4c(c23)C(=O)N1CCCNCCCN1C(=O)c2cccc3cc4ccccc4c(c23)C1=O,184 °C
19,NS(=O)(=O)c1cccc(C(O)CO)c1 (centres undefined),170 to 171 °C
20,CCOC(=O)C1=C(C)NC(=S)N(C(=O)OCC)C1c1ccc(OC)cc1 (centres undefined),130 to 132 °C
21,CC(C)C(NC(=O)OC(C)(C)C)C(=O)OC(O)C(=O)C1C(C)CC2C3CC(F)C4=CC(=O)C=CC4(C)C3C(O)CC21C (centres undefined),166 to 168 °C
22,O=c1oc(-c2ccccc2)cc(O)c1Sc1cccc(C(F)(F)F)c1,228 to 229 °C
